Measurements: ChEMBL document CHEMBL1806439, “Synthesis and antihistamine evaluations of novel loratadine analogues” (2011)

Assays:
[1] = biological target: Histamine H1 receptor (Cavia porcellus) (UniProt P31389); test: Inhibition of histamine H1 receptor in guinea pig ileum assessed as inhibition of histamine-induced muscle spasms at 2 x 10 '-3 mg/ml after 5 mins (reference value: 0.31 %); type: tissue-based
[2] = system: Cavia porcellus; test: Antiasthmatic activity in guinea pig assessed as inhibition of histamine phosphate solution-induced asthmatic reaction measured as increase in asthmogenic latency period at 0.5 mg/kg administered as intragastric (reference value: 99.30 +/- 30.06 sec); type: functional
[3] = system: Cavia porcellus; test: Antiasthmatic activity in guinea pig assessed as inhibition of histamine phosphate solution-induced asthmatic reaction measured as increase in asthmogenic latency period at 0.2 mg/kg administered as intragastric (reference value: 95.50 +/- 18.98 sec); type: functional

Histamine H1 receptor (Cavia porcellus), sequence (P31389 whole entry): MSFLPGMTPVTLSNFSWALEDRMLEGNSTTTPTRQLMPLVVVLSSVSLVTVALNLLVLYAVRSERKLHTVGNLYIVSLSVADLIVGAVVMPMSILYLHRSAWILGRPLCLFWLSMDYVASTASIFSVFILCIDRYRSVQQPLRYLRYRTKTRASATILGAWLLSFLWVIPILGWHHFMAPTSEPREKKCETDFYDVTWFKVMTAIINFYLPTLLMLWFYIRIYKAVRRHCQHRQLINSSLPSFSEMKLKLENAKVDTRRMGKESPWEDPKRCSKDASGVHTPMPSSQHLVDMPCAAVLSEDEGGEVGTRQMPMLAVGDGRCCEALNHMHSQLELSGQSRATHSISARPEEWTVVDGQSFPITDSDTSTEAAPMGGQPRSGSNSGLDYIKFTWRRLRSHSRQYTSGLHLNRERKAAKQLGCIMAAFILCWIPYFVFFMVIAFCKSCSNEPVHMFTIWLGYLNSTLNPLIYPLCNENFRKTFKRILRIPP

Compound	inhibition [1]	Time [2]	Time [3]
CN(C)CCC(c1ccc(Cl)cc1)c1ccccn1 (configuration not stated) [CHLORPHENIRAMINE]	41.3%	214.7 s	105.7 s
OCCCN1CCC(=C2c3ccc(Cl)cc3CCc3cccnc32)CC1	53.7%	360 s	360 s
C[C@H](c1ccccc1)N1CCC(=C2c3ccc(Cl)cc3CCc3cccnc32)CC1	31.4%	309.6 s	210.6 s
C[C@@H](c1ccccc1)N1CCC(=C2c3ccc(Cl)cc3CCc3cccnc32)CC1	32.1%	273.2 s	170.2 s
C[C@H](CO)N1CCC(=C2c3ccc(Cl)cc3CCc3cccnc32)CC1	32.4%	215.6 s	111.1 s
CC[C@@H](CO)N1CCC(=C2c3ccc(Cl)cc3CCc3cccnc32)CC1	53.5%	216 s	123.1 s
CC[C@H](CO)N1CCC(=C2c3ccc(Cl)cc3CCc3cccnc32)CC1	29.4%	229.2 s	125.3 s
OCCN1CCC(=C2c3ccc(Cl)cc3CCc3cccnc32)CC1	50.6%	248.5 s	133.3 s
C[C@@H](CO)N1CCC(=C2c3ccc(Cl)cc3CCc3cccnc32)CC1	49.7%	209.7 s	112.8 s
